Reference: US20200222537A1, “BIOPHOTONIC COMPOSITIONS AND USES THEREOF” (KLOX TECHNOLOGIES LIMITED, priority 2016, published 2020)
≈ marks a conversion by molar mass, not a printed value. Where “and” joins values, the source holds several entries; their conditions need not be identical. Equal values may be shown once.

What was measured:
[1] = Emission peak (Flex Station II); assay type: physicochemical
Procedure: (§1) The compounds were dissolved in the solvents and at the concentrations indicated in Table 2 and the absorbance and emission peaks were measured (measured using a Flex Station II, Model 384 by Molecular Devices Comp.).

[2] = Absorbance peak (Flex Station II); assay type: physicochemical
Procedure: as §1

[3] = Solubilization of chromophores in solvents; conditions: 1 M NaOH, aqueous buffer

SMILES: COc1ccc2cc3[n+](cc2c1OC)CCc1cc2c(cc1-3)OCO2 [Berberine chloride hydrate]
- Emission peak (nm) ([1]; ex. 340 nm, gel): ex. 340 nm, em. 538
- Emission peak (nm) ([1]; ex. 430 nm, liquid): nm, em. 545 nm (liquid)
- Emission peak (nm) ([1]; ex. 460 nm, gel + liquid): ex. 460 nm, em. 540

SMILES: O=C(/C=C/C=C/c1ccc2c(c1)OCO2)N1CCCCC1 [Piperine]
- Emission peak (nm) ([1]; ex. 340 nm, medium not stated): nm, em. 443 nm
- Emission peak (nm) ([1]; ex. 460 nm, gel): ex. 460 nm, em. 634
- Absorbance peak (nm) ([2]; medium not stated): 344 nm

SMILES: O=C1C[C@@](O)(C(=O)O)C(C(=O)O)O1 (stereo partly drawn) [Garcinia acid]
- solubility (physchem; organic solvent or mixture): 10000 µg/mL (≈ 52.6 mM)
- Absorbance peak (nm) ([2]; gel and liquid): 300 nm (gel and

SMILES: O=c1oc2c(O)c(O)cc3c(=O)oc4c(O)c(O)cc1c4c23 [Ellagic acid]
- Emission peak (nm) ([1]; ex. 370 nm, gel): ex. 370 nm, em. 736
- Absorbance peak (nm) ([2]; gel): (liquid); 370 nm (gel)

SMILES: Cc1cc(O)c2c(=O)c3c(O)cc(O)c4c5c(O)cc(O)c6c(=O)c7c(O)cc(C)c8c1c2c(c34)c(c78)c65 [Hypericin]
- Emission peak (nm) ([1]; ex. 345 nm, liquid): nm, em. 700 nm
- Emission peak (nm) ([1]; ex. 460 nm, liquid): ex. 460 nm, em. 700
- Emission peak (nm) ([1]; ex. 620 nm, liquid): em. 700 nm (liquid);
- solubility [3]: 500 µg/mL (≈ 0.991 mM)

SMILES: Oc1ccc(/C=C/c2cc(O)cc(O)c2)cc1 [Resveratrol]
- solubility (physchem; organic solvent or mixture): 10000 µg/mL (≈ 43.8 mM)

SMILES: C/C=C1/[C@H](O[C@@H]2O[C@H](CO)[C@@H](O)[C@H](O)[C@H]2O)OC=C(C(=O)OC)[C@H]1CC(=O)OCCc1ccc(O)c(O)c1 [Oleuropein]
- solubility (physchem; organic solvent or mixture): 10000 µg/mL (≈ 18.5 mM)
- Absorbance peak (nm) ([2]; gel and liquid): 325 nm (gel and

SMILES: O=C(O)/C=C/c1ccc(O)c(O)c1 [Caffeic acid]
- Absorbance peak (nm) ([2]; liquid): 875 nm (liquid)

SMILES: CC1=C(/C=C/C(C)=C/C=C/C(C)=C/C=C/C=C(C)/C=C/C=C(C)/C=C/C2=C(C)C[C@@H](O)CC2(C)C)C(C)(C)C[C@H](O)C1 [Zeaxanthin]
- Emission peak (nm) ([1]; ex. 300 nm, gel): 415 nm and 432 nm and 740 nm and 817 nm
- solubility (physchem; organic solvent or mixture): 2000 µg/mL (≈ 3.52 mM)
- Absorbance peak (nm) ([2]; gel and liquid): 465 nm (gel and

SMILES: C[n+]1cc2c3c(ccc2c2ccc4cc5c(cc4c21)OCO5)OCO3.[Cl-] [Sanguinarine chloride hydrate]
- Emission peak (nm) ([1]; ex. 300 nm, liquid): em. 600 nm (liquid);
- Emission peak (nm) ([1]; ex. 330 nm, gel): nm, em. 590 nm
- Emission peak (nm) ([1]; ex. 405 nm, liquid): ex. 405 nm, em. 600
- Emission peak (nm) ([1]; ex. 460 nm, gel): ex. 460 nm, em. 591
- Emission peak (nm) ([1]; ex. 460 nm, liquid): nm, em. 600 nm
- solubility (physchem; organic solvent or mixture): 3330 µg/mL

SMILES: O=C(OC[C@H]1O[C@@H](OC(=O)c2cc(O)c(O)c(OC(=O)c3cc(O)c(O)c(O)c3)c2)[C@H](OC(=O)c2cc(O)c(O)c(OC(=O)c3cc(O)c(O)c(O)c3)c2)[C@@H](OC(=O)c2cc(O)c(O)c(OC(=O)c3cc(O)c(O)c(O)c3)c2)[C@@H]1OC(=O)c1cc(O)c(O)c(OC(=O)c2cc(O)c(O)c(O)c2)c1)c1cc(O)c(O)c(OC(=O)c2cc(O)c(O)c(O)c2)c1 [Tannic acid]
- solubility (physchem; water): 10000 µg/mL (≈ 5.88 mM)

SMILES: O=C(/C=C/c1ccc(O)c(O)c1)OCCc1ccccc1 [Caffeic acid phenethyl ester (CAPE), Caffeic acid phenethyl ester]
- solubility (physchem; organic solvent or mixture): 10000 µg/mL (≈ 35.2 mM)

SMILES: O=C1c2cccc(O)c2C(=O)c2c(O)cc(CO)cc21 [Aloe-emodin]
- Emission peak (nm) ([1]; ex. 460 nm, gel): nm, em. 600 nm
- Emission peak (nm) ([1]; ex. 460 nm, liquid): ex. 460 nm, em. 588
- solubility (physchem; organic solvent or mixture): 10000 µg/mL (≈ 37 mM)

SMILES: CCCCCCCCC[C@H](O)CC(=O)CCc1ccc(O)c(OC)c1 [10-Gingerol]
- solubility (physchem; organic solvent or mixture): 10000 µg/mL (≈ 28.5 mM)
- Absorbance peak (nm) ([2]; gel and liquid): 300 nm (gel and

SMILES: COc1cc(/C=C/C(=O)/C=C(O)/C=C/c2ccc(O)c(OC)c2)ccc1O [Curcumin]
- Emission peak (nm) ([1]; ex. 390 nm, liquid): em. 540 nm (liquid);
- Emission peak (nm) ([1]; ex. 440 nm, gel): ex. 440 nm, em. 552
- Emission peak (nm) ([1]; ex. 460 nm, gel): ex. 460 nm, em. 555
- Emission peak (nm) ([1]; ex. 460 nm, liquid): nm, em. 544 nm
- solubility (physchem; organic solvent or mixture): 5000 µg/mL (≈ 13.6 mM)
- Absorbance peak (nm) ([2]; medium not stated): 440 nm

SMILES: CC(C)=CCC/C(C)=C/C=C/C(C)=C/C=C/C(C)=C/C=C/C=C(C)/C=C/C=C(C)/C=C/C=C(\C)CCC=C(C)C [Lycopene]
- solubility (physchem; organic solvent or mixture): 1000 µg/mL (≈ 1.86 mM)
- Absorbance peak (nm) ([2]; gel): 490 nm
